According to patent publication US20050197350A1, “Novel quinoline, tetrahydroquinazoline, and pyrimidine derivatives and methods of treatment related to the use thereof” (TAISHO PHARMACEUTICAL CO., LTD., priority 2003, published 2005):

What follows are molecules tested on MCH receptors (assay: MCH receptor activity class (method not given)). Conditions: MCH receptor; class by percent of control at 10^-7 M or IC50.

Q: How did the class turn out when `CN(C)c1cc(N[C@H]2CC[C@@H](NC(=O)c3cncc(Br)c3)CC2)nc2ccccc12` [compound 88] was run?
A: 3 (Class 3 The value of percent of control at 10^−7 M was more than 60% or the value of IC50 was more than 200 nM.)

Q: For `CN(C)c1cc(N[C@H]2CC[C@@H](NC(=O)Cc3cccc4ccccc34)CC2)nc2ccccc12` [compound 89], which class is on record?
A: 3 (Class 3 The value of percent of control at 10^−7 M was more than 60% or the value of IC50 was more than 200 nM.)

Q: `Cc1cc(C(=O)N[C@H]2CC[C@@H](Nc3cc(N(C)C)c4ccccc4n3)CC2)nn1C(C)(C)C` [compound 90] was tested. Which class did it give?
A: 3 (Class 3 The value of percent of control at 10^−7 M was more than 60% or the value of IC50 was more than 200 nM.)

Q: With `CN(C)c1cc(N[C@H]2CC[C@@H](NC(=O)c3csc4ccccc34)CC2)nc2ccccc12` [compound 91] as the molecule, how does the class read?
A: 3 (Class 3 The value of percent of control at 10^−7 M was more than 60% or the value of IC50 was more than 200 nM.)

Q: Which class does the source give for `CN(C)c1cc(N[C@H]2CC[C@@H](NC(=O)c3ccccc3)CC2)nc2ccccc12` [compound 93] here?
A: 3 (Class 3 The value of percent of control at 10^−7 M was more than 60% or the value of IC50 was more than 200 nM.)

Q: How did the class turn out when `CN(C)c1cc(N[C@H]2CC[C@@H](NC(=O)c3cc4ccccc4s3)CC2)nc2ccccc12` [compound 94] was run?
A: 3 (Class 3 The value of percent of control at 10^−7 M was more than 60% or the value of IC50 was more than 200 nM.)

Q: Which class does the source give for `CN(C)c1cc(N[C@H]2CC[C@@H](NC(=O)COCc3ccccc3)CC2)nc2ccccc12` [compound 95] here?
A: 3 (Class 3 The value of percent of control at 10^−7 M was more than 60% or the value of IC50 was more than 200 nM.)

Q: With `CN(C)c1cc(N[C@H]2CC[C@@H](NC(=O)COc3ccc(Cl)cc3)CC2)nc2ccccc12` [compound 96] as the molecule, how does the class read?
A: 1 (Class 1: The value of percent of control at 10^−7 M was less than 40% or the value of IC50 was less than 50 nM.)

Q: `CN(C)c1cc(N[C@H]2CC[C@@H](NC(=O)C3CCCCC3)CC2)nc2ccccc12` [compound 97] was tested. Which class did it give?
A: 3 (Class 3 The value of percent of control at 10^−7 M was more than 60% or the value of IC50 was more than 200 nM.)

Q: How did the class turn out when `Cc1onc(-c2ccccc2Cl)c1C(=O)N[C@H]1CC[C@@H](Nc2cc(N(C)C)c3ccccc3n2)CC1` [compound 98] was run?
A: 1 (Class 1: The value of percent of control at 10^−7 M was less than 40% or the value of IC50 was less than 50 nM.)

Q: `CN(C)c1cc(N[C@H]2CC[C@@H](NC(=O)C3(c4ccc(Cl)cc4)CCCC3)CC2)nc2ccccc12` [compound 99] was tested. Which class did it give?
A: 2 (Class 2: The value of percent of control at 10^−7 M was from 40% to 60% or the value of IC′50 was from 50 nM to 200 nM.)

Q: `Cc1onc(-c2c(F)cccc2Cl)c1C(=O)N[C@H]1CC[C@@H](Nc2cc(N(C)C)c3ccccc3n2)CC1` [compound 100, 3-(2-chloro-6-fluorophenyl)-N-(cis-4-{[4-(dimethylamino)quinolin-2-yl]amino}cyclohexyl)-5-methylisoxazole-4-carboxamide] was tested. Which class did it give?
A: 1 (Class 1: The value of percent of control at 10^−7 M was less than 40% or the value of IC50 was less than 50 nM.)

Q: Which class does the source give for `CC(C)S(=O)(=O)c1csc(C(=O)N[C@H]2CC[C@@H](Nc3cc(N(C)C)c4ccccc4n3)CC2)c1Cl` [compound 101] here?
A: 3 (Class 3 The value of percent of control at 10^−7 M was more than 60% or the value of IC50 was more than 200 nM.)

Q: `CN(C)c1cc(N[C@H]2CC[C@@H](NC(=O)c3ccc([N+](=O)[O-])cc3Cl)CC2)nc2ccccc12` [compound 102] was tested. Which class did it give?
A: 3 (Class 3 The value of percent of control at 10^−7 M was more than 60% or the value of IC50 was more than 200 nM.)

Q: How did the class turn out when `Cc1cc(C(=O)N[C@H]2CC[C@@H](Nc3cc(N(C)C)c4ccccc4n3)CC2)n(C)n1` [compound 103] was run?
A: 3 (Class 3 The value of percent of control at 10^−7 M was more than 60% or the value of IC50 was more than 200 nM.)

Q: With `COc1ccc(C(=O)N[C@H]2CC[C@@H](Nc3cc(N(C)C)c4ccccc4n3)CC2)cc1OC` [compound 104] as the molecule, how does the class read?
A: 3 (Class 3 The value of percent of control at 10^−7 M was more than 60% or the value of IC50 was more than 200 nM.)

Q: For `CN(C)c1cc(N[C@H]2CC[C@@H](NC(=O)c3cccc(F)c3)CC2)nc2ccccc12` [compound 105, N-(cis-4-{[4-(dimethylamino)quinolin-2-yl]amino}cyclohexyl)-3-fluorobenzamide], which class is on record?
A: 2 (Class 2: The value of percent of control at 10^−7 M was from 40% to 60% or the value of IC′50 was from 50 nM to 200 nM.)

Q: `CN(C)c1cc(N[C@H]2CC[C@@H](NC(=O)c3ccc(F)c(C(F)(F)F)c3)CC2)nc2ccccc12` [compound 106, N-(cis-4-{[4-(dimethylamino)quinolin-2-yl]amino}cyclohexyl)-4-fluoro-3-(trifluoromethyl)benzamide] was tested. Which class did it give?
A: 1 (Class 1: The value of percent of control at 10^−7 M was less than 40% or the value of IC50 was less than 50 nM.)

Q: `Cc1nn(-c2ccccc2)nc1C(=O)N[C@H]1CC[C@@H](Nc2cc(N(C)C)c3ccccc3n2)CC1` [compound 107, N-(cis-4-{[4-(dimethylamino)quinolin-2-yl]amino}cyclohexyl)-5-methyl-2-phenyl-2H-1,2,3-triazole-4-carboxamide] was tested. Which class did it give?
A: 2 (Class 2: The value of percent of control at 10^−7 M was from 40% to 60% or the value of IC′50 was from 50 nM to 200 nM.)

Q: `COc1ccc(Oc2ccc([N+](=O)[O-])cc2C(=O)N[C@H]2CC[C@@H](Nc3cc(N(C)C)c4ccccc4n3)CC2)cc1` [compound 108, N-(cis-4-{[4-(dimethylamino)quinolin-2-yl]amino}cyclohexyl)-2-(4-methoxyphenoxy)-5-nitrobenzamide] was tested. Which class did it give?
A: 1 (Class 1: The value of percent of control at 10^−7 M was less than 40% or the value of IC50 was less than 50 nM.)

Q: For `CN(C)c1cc(N[C@H]2CC[C@@H](NC(=O)c3cccc4ccccc34)CC2)nc2ccccc12` [compound 109], which class is on record?
A: 3 (Class 3 The value of percent of control at 10^−7 M was more than 60% or the value of IC50 was more than 200 nM.)

Q: For `CN(C)c1cc(N[C@H]2CC[C@@H](NC(=O)c3ccc4ccccc4c3)CC2)nc2ccccc12` [compound 110], which class is on record?
A: 3 (Class 3 The value of percent of control at 10^−7 M was more than 60% or the value of IC50 was more than 200 nM.)

Q: For `CN(C)c1cc(N[C@H]2CC[C@@H](NC(=O)c3ccc([N+](=O)[O-])o3)CC2)nc2ccccc12` [compound 111, N-(cis-4-{[4-(dimethylamino)quinolin-2-yl]amino}cyclohexyl)-5-nitro-2-furamide], which class is on record?
A: 1 (Class 1: The value of percent of control at 10^−7 M was less than 40% or the value of IC50 was less than 50 nM.)

Q: For `CN(C)c1cc(N[C@H]2CC[C@@H](NC(=O)COc3ccccc3)CC2)nc2ccccc12` [compound 112, N-(cis-4-{[4-(dimethylamino)quinolin-2-yl]amino}cyclohexyl)-2-phenoxyacetamide], which class is on record?
A: 1 (Class 1: The value of percent of control at 10^−7 M was less than 40% or the value of IC50 was less than 50 nM.)

Q: For `CN(C)c1cc(N[C@H]2CC[C@@H](NC(=O)COc3ccccc3[N+](=O)[O-])CC2)nc2ccccc12` [compound 113], which class is on record?
A: 3 (Class 3 The value of percent of control at 10^−7 M was more than 60% or the value of IC50 was more than 200 nM.)

Q: Which class does the source give for `CN(C)c1cc(N[C@H]2CC[C@@H](NC(=O)c3cnc4ccccc4n3)CC2)nc2ccccc12` [compound 114, N-(cis-4-{[4-(dimethylamino)quinolin-2-yl]amino}cyclohexyl)quinoxaline-2-carboxamide] here?
A: 2 (Class 2: The value of percent of control at 10^−7 M was from 40% to 60% or the value of IC′50 was from 50 nM to 200 nM.)
